Where two headings read alike, the source gives them in different places.
Experiments:
[1] = biological target: T1, human somatostatin receptor subtype 2 (Homo sapiens, UniProt P30874); test: cAMP assay for SST2R (inhibition of cAMP in CHO-K1 cells); type: cell-based; details: Table B; inhibition of cAMP via human SST2 receptor; read-out: SST2 potency
T1 construct: expressed in transfected cells
Excerpt: General overview: All five SSTR subtypes are Gi coupled G-protein coupled receptors (GPCRs) that lead to decreases in intracellular cyclic AMP (cAMP) when activated by an agonist. Therefore, measurement of intracellular cAMP levels can be used to assess whether compounds of the invention are agonists of SSTR subtypes (John Kelly, Troy Stevens, W. Joseph Thompson, and Roland Seifert, Current Protocols in Pharmacology, 2005, 2.2.1-2.2). One example of an intracellular cAMP assay is described below.
cAMP Assay Protocol for SST2R:
Four days prior to the assay, 5,000 Chinese hamster ovary cells (CHO-K1, ATCC #CCL-61) stably expressing the human somatostatin receptor subtype 2 are plated in each well of a 96-well tissue culture-treated plate in Ham's F12 growth media (ThermoFisher #10-080-CM) supplemented with 10% donor bovine serum (Gemini Bio-Products #100-506), 100 U/mL penicillin; 100 μg/mL streptomycin; 2 mM L-glutamine (Gemini Bio-Products #400-110) and 0.2 mg/mL hygromycin B (GoldBio #31282-04-9). The cells are cultured at 37° C., 5% CO2 and 95% humidity. On the day of the assay, the media is aspirated and the cells are treated with 50 μL of 1.6 μM NKH477 (Sigma #N3290) plus various dilutions of compounds of the invention in assay buffer [1× Hank's Balanced Salt Solution (ThermoFisher #SH3058802), 0.5 mM HEPES pH 7.4, 0.1% bovine serum albumin, 0.2 mM 3-Isobutyl-1-methylxanthine (IBMX, VWR #200002-790)]. The cells are incubated for 20 minutes at 37° C. […] The cells are treated with 50 μL of lysis buffer (HRTF cAMP kit, Cisbio). The lysate is transferred to 384-well plates and cAMP detection and visualization antibodies are added and incubated for 1-24 hours at room temperature. The time-resolved fluorescent signal is read with a Tecan M1000Pro multiplate reader. The intracellular cAMP concentrations are calculated by regression to a standard curve and are plotted vs. the concentration of the compounds of the invention and the EC50 of the compounds are calculated using standard methods. All data manipulations are in GraphPad Prism v6 or v7.

[2] = biological target: T2, human somatostatin receptor subtype 5 (Homo sapiens, UniProt P35346); test: cAMP assay for SST5R (inhibition of cAMP in CHO-K1 cells); type: cell-based; details: for EC50: inhibition of cAMP via human SST5 receptor, read-out: SST5 potency; for Fold selectivity for SST5 vs SST2: class symbols, SST5 receptor over SST2 receptor
T2 construct: expressed in transfected cells
Summary of the method: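 CHO-K1 cells stably expressing human SSTR5 were treated 20 min at 37 °C with compounds plus 1.6 μM NKH477 in HBSS, 0.5 mM HEPES pH 7.4, 0.1% BSA, 0.2 mM IBMX. Lysate cAMP measured by HTRF against a standard curve; EC50 from cAMP-versus-concentration plots.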

T1 sequence (P30874 whole entry): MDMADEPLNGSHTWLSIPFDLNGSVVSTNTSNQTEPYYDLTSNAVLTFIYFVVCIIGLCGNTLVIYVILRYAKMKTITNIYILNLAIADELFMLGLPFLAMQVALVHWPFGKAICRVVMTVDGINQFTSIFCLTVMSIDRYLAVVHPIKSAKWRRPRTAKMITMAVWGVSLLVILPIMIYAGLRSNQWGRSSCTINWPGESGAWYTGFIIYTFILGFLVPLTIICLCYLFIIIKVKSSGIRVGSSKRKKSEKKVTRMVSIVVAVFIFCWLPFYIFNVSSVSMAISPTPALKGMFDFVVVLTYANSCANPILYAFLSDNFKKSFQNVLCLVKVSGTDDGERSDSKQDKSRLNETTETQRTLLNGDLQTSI
T2 sequence (P35346 whole entry): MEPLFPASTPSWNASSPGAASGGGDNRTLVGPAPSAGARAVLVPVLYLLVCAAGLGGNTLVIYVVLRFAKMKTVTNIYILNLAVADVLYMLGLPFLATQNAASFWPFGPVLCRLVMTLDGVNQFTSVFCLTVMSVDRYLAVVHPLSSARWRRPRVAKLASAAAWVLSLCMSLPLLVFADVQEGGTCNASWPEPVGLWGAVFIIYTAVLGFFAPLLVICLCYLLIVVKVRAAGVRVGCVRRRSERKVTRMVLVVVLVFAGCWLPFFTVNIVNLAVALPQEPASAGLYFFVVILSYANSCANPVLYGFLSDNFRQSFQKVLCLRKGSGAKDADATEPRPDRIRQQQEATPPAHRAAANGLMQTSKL

EC50 [1] [nM] | EC50 ([2]; Table A) [nM] | Fold selectivity for SST5 vs SST2 ([2]; Table B) | EC50 ([2]; Table B) [nM] | Compound
100 to 1000 | < 10 | +++ (+++=>500) | < 10 | COc1ncc(C(=O)N[C@@H](C)C(F)(F)F)c(N2CC[C@H](N)C2)c1-c1cc(F)cc(Cl)c1 [1-283, 4-[(3S)-3-aminopyrrolidin-1-yl]-5-(3-chloro-5-fluorophenyl)-6-methoxy-N-[(2S)-1,1,1-trifluoropropan-2-yl]pyridine-3-carboxamide]
100 to 1000 | < 10 | +++ (+++=>500) | < 10 | C[C@]1(N)CCN(c2c(C(=O)NC3CCC(F)(F)CC3)cncc2-c2cc(F)c(F)c(F)c2)C1 [1-20, 4-[(3S)-3-amino-3-methylpyrrolidin-1-yl]-N-(4,4-difluorocyclohexyl)-5-(3,4,5-trifluorophenyl)pyridine-3-carboxamide]
100 to 1000 | < 10 | +++ (+++=>500) | < 10 | COc1ncc(C(=O)NC23CC(F)(C2)C3)c(N2CC[C@H](N)C2)c1-c1cc(F)cc(Cl)c1 [1-286, 4-[(3S)-3-aminopyrrolidin-1-yl]-5-(3-chloro-5-fluorophenyl)-N-{3-fluorobicyclo[1.1.1]pentan-1-yl}-6-methoxypyridine-3-carboxamide]
100 to 1000 | < 10 | ++ (++=100 to 499) | < 10 | CCC(CC)NC(=O)c1cncc(-c2cc(F)cc(F)c2)c1N1CC[C@](C)(N)C1 [1-31, 4-[(3S)-3-amino-3-methylpyrrolidin-1-yl]-5-(3,5-difluorophenyl)-N-(pentan-3-yl)pyridine-3-carboxamide]
100 to 1000 | < 10 | +++ (+++=>500) | < 10 | COc1ncc(C(=O)NC2CC(F)(F)C2)c(N2CC[C@](C)(N)C2)c1-c1cc(F)cc(F)c1 [1-137, 4-[(3S)-3-amino-3-methylpyrrolidin-1-yl]-N-(3,3-difluorocyclobutyl)-5-(3,5-difluorophenyl)-6-methoxypyridine-3-carboxamide]
10 to 100 | < 10 | + (+=10 to 99) | < 10 | Cc1cccc2[nH]c(-c3cncc(C(=O)N[C@@H](C)C(F)(F)F)c3N3CC[C@](C)(N)C3)nc12 [2-11, 4-[(3S)-3-amino-3-methylpyrrolidin-1-yl]-5-(4-methyl-1H-1,3-benzodiazol-2-yl)-N-[(2S)-1,1,1-trifluoropropan-2-yl]pyridine-3-carboxamide]
100 to 1000 | < 10 | ++ (++=100 to 499) | < 10 | COc1cc(C#N)cc(-c2cncc(C(=O)NC34CC(C3)C4)c2N2CC[C@](C)(N)C2)c1 [1-94, 4-[(3S)-3-amino-3-methylpyrrolidin-1-yl]-N-{bicyclo[1.1.1]pentan-1-yl}-5-(3-cyano-5-methoxyphenyl)pyridine-3-carboxamide]
> 1000 | < 10 | +++ (+++=>500) | < 10 | CC(NC(=O)c1cnc(C#N)c(-c2cc(F)cc(F)c2)c1N1CC[C@](C)(N)C1)c1ncccn1 (stereo partly drawn) [1-126, 4-[(3S)-3-amino-3-methylpyrrolidin-1-yl]-6-cyano-5-(3,5-difluorophenyl)-N-[1-(pyrimidin-2-yl)ethyl]pyridine-3-carboxamide]
100 to 1000 | < 10 | +++ (+++=>500) | < 10 | C[C@]1(N)CCN(c2c(C(=O)NC3CC(F)(F)C3)cnc(C#N)c2-c2cc(F)cc(F)c2)C1 [1-79, 4-[(3S)-3-amino-3-methylpyrrolidin-1-yl]-6-cyano-N-(3,3-difluorocyclobutyl)-5-(3,5-difluorophenyl)pyridine-3-carboxamide]
100 to 1000 | < 10 | +++ (+++=>500) | < 10 | Cc1ncc(C(=O)N[C@@H](C)C2CC2)c(N2CC[C@](C)(N)C2)c1-c1ccc(F)c(Cl)c1 [1-289, 4-[(3S)-3-amino-3-methylpyrrolidin-1-yl]-5-(3-chloro-4-fluorophenyl)-N-[(1S)-1-cyclopropylethyl]-6-methylpyridine-3-carboxamide]
100 to 1000 | < 10 | +++ (+++=>500) | < 10 | N#Cc1ncc(C(=O)NC2CCCCC2)c(N2CC[C@H](N)C2)c1-c1cc(F)cc(F)c1 [1-81, 4-[(3S)-3-aminopyrrolidin-1-yl]-6-cyano-N-cyclohexyl-5-(3,5-difluorophenyl)pyridine-3-carboxamide]
10 to 100 | < 10 | +++ (+++=>500) | < 10 | Cc1ncc(C(=O)N[C@@H](C)C2CC2)c(N2CC[C@](C)(N)C2)c1-c1cc(F)cc(Cl)c1 [1-125, 4-[(3S)-3-amino-3-methylpyrrolidin-1-yl]-5-(3-chloro-5-fluorophenyl)-N-[(1S)-1-cyclopropylethyl]-6-methylpyridine-3-carboxamide]
> 1000 | < 10 | +++ (+++=>500) | < 10 | Cc1ncc(C(=O)NC2CCC(F)(F)CC2)c(N2CC[C@H](N)C2)c1-c1cc(F)cc(Cl)c1 [1-277, 4-[(3S)-3-aminopyrrolidin-1-yl]-5-(3-chloro-5-fluorophenyl)-N-(4,4-difluorocyclohexyl)-6-methylpyridine-3-carboxamide]
– | < 10 | – | – | C[C@]1(N)CCN(c2c(C(=O)NCC3CC3(F)F)cncc2-c2cc(F)cc(F)c2)C1 (stereo partly drawn) [1-42, 4-[(3S)-3-amino-3-methylpyrrolidin-1-yl]-N-[(2,2-difluorocyclopropyl)methyl]-5-(3,5-difluorophenyl)pyridine-3-carboxamide]
– | < 10 | – | – | Cc1cccc2[nH]c(-c3cncc(C(=O)NCC4CC4)c3N3CC[C@](C)(N)C3)nc12 [2-13, 4-[(3S)-3-amino-3-methylpyrrolidin-1-yl]-N-(cyclopropylmethyl)-5-(4-methyl-1H-1,3-benzodiazol-2-yl)pyridine-3-carboxamide]
– | < 10 | – | – | C[C@H](NC(=O)c1cnc(C#N)c(-c2cc(F)cc(Cl)c2)c1N1C[C@H](N)[C@@H](F)C1)C1CC1 (single isomer, unassigned) [1-139]
– | < 10 | – | – | COc1ncc(C(=O)NC2CCC(F)(F)CC2)c(N2CC[C@H](N)C2)c1-c1cc(F)cc(F)c1 [1-150, 4-[(3S)-3-aminopyrrolidin-1-yl]-N-(4,4-difluorocyclohexyl)-5-(3,5-difluorophenyl)-6-methoxypyridine-3-carboxamide]
– | 100 to 1000 | – | – | CC(C)C(NC(=O)c1cncc(-c2cc(F)cc(F)c2)c1N1CC[C@](C)(N)C1)C(C)C [1-39, 4-[(3S)-3-amino-3-methylpyrrolidin-1-yl]-5-(3,5-difluorophenyl)-N-(2,4-dimethylpentan-3-yl)pyridine-3-carboxamide]
– | < 10 | – | – | CC(NC(=O)c1cnc(C#N)c(-c2cc(F)cc(F)c2)c1N1CCC(N)C1)C(F)(F)F (stereo not shown) [1-225, 4-(3-aminopyrrolidin-1-yl)-6-cyano-5-(3,5-difluorophenyl)-N-(1,1,1-trifluoropropan-2-yl)pyridine-3-carboxamide]
– | < 10 | – | – | C[C@@H](NC(=O)c1cnc(C#N)c(-c2cc(F)cc(F)c2)c1N1CC[C@](C)(N)C1)C(F)(F)F [1-222, 4-[(3S)-3-amino-3-methylpyrrolidin-1-yl]-6-cyano-5-(3,5-difluorophenyl)-N-[(2R)-1,1,1-trifluoropropan-2-yl]pyridine-3-carboxamide]
– | < 10 | – | – | COc1ncc(C(=O)N[C@@H](C)C2CC2)c(N2CC[C@](C)(N)C2)c1-c1cc(F)cc(F)c1 [1-141, 4-[(3S)-3-amino-3-methylpyrrolidin-1-yl]-N-[(1S)-1-cyclopropylethyl]-5-(3,5-difluorophenyl)-6-methoxypyridine-3-carboxamide]
– | 10 to 100 | – | – | COCC1(N)CCN(c2c(C(=O)NC34CC(C3)C4)cncc2-c2cc(F)cc(F)c2)C1 (stereo not shown) [1-36, 4-[3-amino-3-(methoxymethyl)pyrrolidin-1-yl]-N—{bicyclo[1.1.1]pentan-1-yl}-5-(3,5-difluorophenyl)pyridine-3-carboxamide]

— patent US12600709B2, “Nonpeptide somatostatin type 5 receptor agonists and uses thereof” (Crinetics Pharmaceuticals, Inc., priority 2019, dated 2026)
